Results from patent US20190375842A1, “CHECK POINT INHIBITION IN ORGAN FIBROSIS” (VANDERBILT UNIVERSITY, priority 2018, published 2019).

Tested on: human lung fibroblasts/fibrocytes (HLF) co-cultured with sarcoidosis CD4+ T cells
Test: CD4+ T cell and human lung fibroblast (HLF) co-culture, collagen I production by flow cytometry
Type: cell-based
Conditions: after exposure to STATTIC
Protocol: The detection of increased collagen-1 production following co-culture of sarcoidosis PD-1+CD4+ cells supported an investigation of the effects of PD-1 pathway blockade on HLF collagen I production. Purified sarcoidosis CD4+ T cells at a final concentration of 2×10^6/mL were cultured overnight in the presence of α-PD-1, α-PD-L1 and α-PD-L2. HLFs were added the following day at a 1:10 ratio (HLF:T cell). […] Similar results were also observed for collagen I producing fibrocytes (CD45^+) that were cultured in the presence of sarcoidosis CD4+ T cells. There was a significant decline in collagen I production of 22% following PD-1 pathway blockade (p=0.0002) (FIG. 7E). Once again, these differences were only observed when HLF were cultured with sorted CD4+ T cells from sarcoidosis patients that had high baseline PD-1 expression on their CD4+ T cells (p=0.0002) (FIG. 7F) but not from patients with low PD-1 (p=0.10) (FIG. 7G).
LN2 frozen PBMC were thawed and readied for CD4+ T cell purification as aforementioned. 4-5×10^5 CD4+ T cells were plated on a 96-well plate at a final concentration of 2×10^6/mL in RPMI 1640-supplemented medium and then allowed to rest at 37° C. in 5% atmospheric CO2 for 2 hours prior to PD-1 pathway blockade or STATS inhibition using STATTIC. […]

**Q.** Which results are given for `O=[N+]([O-])c1ccc2c(c1)S(=O)(=O)C=C2` [STATTIC]?
**A.** collagen 1 production by fibrocytes (sarcoidosis PD-1+CD4+ T cells co-cultured with fibrocytes): significant reduction; collagen 1 production by fibroblasts (sarcoidosis PD-1+CD4+ T cells co-cultured with human lung fibroblasts): significant reduction
